Source: patent US11427553B2, “Dihydrooxadiazinones” (Bayer Aktiengesellschaft, priority 2017, dated 2022)

Tests used:
[1] = test system: HeLa cells; experiment: Assay 1 cell proliferation measurement (CTG, 72 h), HeLa; assay type: cell-based, human; conditions: Homo sapiens, HeLa; Assay 1, 72 h, Cell Titer Glo; read-out: HeLa IC50 [nM] (Cervical cancer)
Outline: (§1)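 Cells were plated, grown overnight at 37 °C, then treated 72 h with a 10-step 2.5-fold dilution series from 100 nM maximum final (0.3% DMSO vehicle). Viability was read by CellTiter-Glo luminescence. IC50 from a 4-parameter fit, normalised to a 0 h plate (maximum inhibition) and DMSO control (minimum inhibition).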

[2] = molecular target: human full length PDE3B (Homo sapiens (Human), UniProt Q13370); experiment: Assay 5 PDE3B enzyme inhibition (3H-cAMP SPA); assay type: biochemical; conditions: Sf9 cell extract
Outline: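 Sf9 cell extract expressing human full-length PDE3B, diluted for linear kinetics (<70% substrate use), in 50 mM Tris/HCl pH 7.5, 8.3 mM MgCl2, 1.7 mM EDTA. [8-3H]cAMP substrate, 60 min at room temperature; stopped with yttrium SPA beads, scintillation counting. IC50 from sigmoidal activity vs log concentration curves.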

[3] = molecular target: human full length PDE3A (Homo sapiens (Human), UniProt Q14432); experiment: Assay 4 PDE3A enzyme inhibition (3H-cAMP SPA); assay type: biochemical; conditions: Sf9 cell extract
Outline: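 In this SPA format, the 60-min room-temperature reaction used 0.025 μCi [8-3H]cAMP and diluted full-length PDE3A from Sf9 cells. Percentage activity was plotted against log compound concentration to derive IC50.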

[4] = test system: SK-MEL-3 cells; experiment: Assay 1 cell proliferation measurement (CTG, 72 h), SK-MEL-3; assay type: cell-based, human; conditions: Homo sapiens, SK-MEL3; Assay 1, 72 h, Cell Titer Glo; read-out: SK-MEL-3 IC50 [nM] (melanoma)
Outline: as §1

human full length PDE3A, sequence (Q14432 whole entry): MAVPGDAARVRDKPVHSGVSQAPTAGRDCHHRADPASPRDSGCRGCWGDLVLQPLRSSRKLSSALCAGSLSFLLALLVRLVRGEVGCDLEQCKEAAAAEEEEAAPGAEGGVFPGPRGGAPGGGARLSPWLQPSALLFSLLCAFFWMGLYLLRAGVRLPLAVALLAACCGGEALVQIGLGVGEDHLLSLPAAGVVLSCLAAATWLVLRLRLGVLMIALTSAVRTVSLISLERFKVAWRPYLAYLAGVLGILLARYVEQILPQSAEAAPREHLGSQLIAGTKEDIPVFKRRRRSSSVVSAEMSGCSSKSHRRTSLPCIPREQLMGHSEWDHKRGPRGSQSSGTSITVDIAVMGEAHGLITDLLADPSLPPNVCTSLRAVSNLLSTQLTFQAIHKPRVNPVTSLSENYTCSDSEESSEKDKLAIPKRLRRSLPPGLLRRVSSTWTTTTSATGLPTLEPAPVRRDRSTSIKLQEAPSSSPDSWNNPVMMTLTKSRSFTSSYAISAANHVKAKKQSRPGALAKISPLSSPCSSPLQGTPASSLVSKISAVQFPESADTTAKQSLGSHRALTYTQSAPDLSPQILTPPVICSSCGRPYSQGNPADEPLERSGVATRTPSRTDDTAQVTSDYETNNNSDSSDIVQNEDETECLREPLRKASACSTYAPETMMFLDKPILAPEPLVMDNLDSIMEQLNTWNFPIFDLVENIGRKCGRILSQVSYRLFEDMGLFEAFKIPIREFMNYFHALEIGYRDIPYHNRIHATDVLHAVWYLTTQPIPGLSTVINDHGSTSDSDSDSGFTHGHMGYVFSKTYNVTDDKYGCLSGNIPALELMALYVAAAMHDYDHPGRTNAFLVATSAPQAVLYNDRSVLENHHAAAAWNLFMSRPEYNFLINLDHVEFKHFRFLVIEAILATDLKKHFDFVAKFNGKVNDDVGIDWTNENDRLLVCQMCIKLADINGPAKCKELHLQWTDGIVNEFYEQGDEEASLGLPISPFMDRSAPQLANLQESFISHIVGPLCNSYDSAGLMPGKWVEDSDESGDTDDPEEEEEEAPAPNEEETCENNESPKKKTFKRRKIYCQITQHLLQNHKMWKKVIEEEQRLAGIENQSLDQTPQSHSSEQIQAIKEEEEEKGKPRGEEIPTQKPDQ
human full length PDE3B, sequence (Q13370 whole entry): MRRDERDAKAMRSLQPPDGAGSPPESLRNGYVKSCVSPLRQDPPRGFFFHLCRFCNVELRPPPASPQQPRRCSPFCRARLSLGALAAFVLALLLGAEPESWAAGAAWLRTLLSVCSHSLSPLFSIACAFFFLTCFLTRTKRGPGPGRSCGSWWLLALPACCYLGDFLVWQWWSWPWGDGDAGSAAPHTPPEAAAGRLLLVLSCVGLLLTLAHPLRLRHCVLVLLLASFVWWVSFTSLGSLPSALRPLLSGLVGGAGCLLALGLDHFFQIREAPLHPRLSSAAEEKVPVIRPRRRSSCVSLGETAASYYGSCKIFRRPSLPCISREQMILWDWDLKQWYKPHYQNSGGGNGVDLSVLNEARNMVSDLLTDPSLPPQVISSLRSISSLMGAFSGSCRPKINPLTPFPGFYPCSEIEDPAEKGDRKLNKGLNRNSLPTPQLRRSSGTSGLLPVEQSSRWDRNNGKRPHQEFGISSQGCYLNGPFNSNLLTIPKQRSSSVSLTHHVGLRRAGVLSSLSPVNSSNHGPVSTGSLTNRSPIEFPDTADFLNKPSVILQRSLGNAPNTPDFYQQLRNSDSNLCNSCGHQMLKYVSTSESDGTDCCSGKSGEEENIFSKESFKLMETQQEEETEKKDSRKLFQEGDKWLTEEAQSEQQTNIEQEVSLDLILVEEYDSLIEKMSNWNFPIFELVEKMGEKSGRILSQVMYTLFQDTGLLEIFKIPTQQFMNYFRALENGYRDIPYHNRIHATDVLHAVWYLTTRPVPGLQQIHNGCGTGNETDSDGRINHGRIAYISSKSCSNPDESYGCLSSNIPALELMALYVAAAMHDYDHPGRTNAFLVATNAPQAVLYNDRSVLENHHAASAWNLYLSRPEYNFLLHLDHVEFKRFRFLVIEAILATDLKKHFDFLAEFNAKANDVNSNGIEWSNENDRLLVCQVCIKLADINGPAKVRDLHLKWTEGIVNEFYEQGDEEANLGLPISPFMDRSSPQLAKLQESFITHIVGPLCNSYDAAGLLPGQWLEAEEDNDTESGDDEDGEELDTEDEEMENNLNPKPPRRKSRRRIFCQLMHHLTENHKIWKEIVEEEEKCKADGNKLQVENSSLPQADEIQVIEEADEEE

IC50 [1] | IC50 [2] | IC50 [3] | IC50 [4] | Structure (SMILES)
12 nM | 580 nM | 270 nM | 26 nM | CCCCN(C)c1ccc(C2=NNC(=O)OC2)cc1C(F)(F)F [Example 134, 5-{4-[Butyl(methyl)amino]-3-(trifluoromethyl)phenyl}-3,6-dihydro-2H-1,3,4-oxadiazin-2-one]
0.3 nM | 27 nM | 32 nM | 1 nM | O=C1NN=C(c2ccc(NC3CCCC3)c(C(F)(F)F)c2)CO1 [Example 136, 5-[4-(Cyclopentylamino)-3-(trifluoromethyl)phenyl]-3,6-dihydro-2H-1,3,4-oxadiazin-2-one]
1 nM | 88 nM | 52 nM | 3 nM | CC(C)Nc1ccc(C2=NNC(=O)OC2)cc1C(F)(F)F [Example 137, 5-[4-(Propan-2-ylamino)-3-(trifluoromethyl)phenyl]-3,6-dihydro-2H-1,3,4-oxadiazin-2-one]
7 nM | 200 nM | 150 nM | 19 nM | O=C1NN=C(c2ccc(-c3cccc(F)c3)c(C(F)(F)F)c2)CO1 [Example 138, 5-[3′-Fluoro-2-(trifluoromethyl)biphenyl-4-yl]-3,6-dihydro-2H-1,3,4-oxadiazin-2-one]
3 nM | 47 nM | 25 nM | 4 nM | O=C1NN=C(c2ccc(C3=CCCOC3)c(C(F)(F)F)c2)CO1 [Example 142, 5-[4-(5,6-dihydro-2H-pyran-3-yl)-3-(trifluoromethyl)phenyl]-3,6-dihydro-2H-1,3,4-oxadiazin-2-one]
15 nM | 83 nM | 38 nM | 30 nM | O=C1NN=C(c2ccc(-c3ccc4nccn4c3)c(C(F)(F)F)c2)CO1 [Example 143, 5-[4-(Imidazo[1,2-a]pyridin-6-yl)-3-(trifluoromethyl)phenyl]-3,6-dihydro-2H-1,3,4-oxadiazin-2-one]
6 nM | 100 nM | 55 nM | 13 nM | CC(C)(C)/C=C/c1ccc(C2=NNC(=O)OC2)cc1C(F)(F)F [Example 144, 5-{4-[3,3-Dimethylbut-1-en-1-yl]-3-(trifluoromethyl)phenyl}-3,6-dihydro-2H-1,3,4-oxadiazin-2-one]
27 nM | 410 nM | 240 nM | 47 nM | O=C1NN=C(c2ccc(-c3csc(C(F)(F)F)c3)c(C(F)(F)F)c2)CO1 [Example 145, 5-{3-(Trifluoromethyl)-4-[5-(trifluoromethyl)thiophen-3-yl]phenyl}-3,6-dihydro-2H-1,3,4-oxadiazin-2-one]
22 nM | 310 nM | 140 nM | 39 nM | C=C(C)c1ccc(C2=NNC(=O)OC2)cc1C(F)(F)F [Example 147, 5-[4-(Prop-1-en-2-yl)-3-(trifluoromethyl)phenyl]-3,6-dihydro-2H-1,3,4-oxadiazin-2-one]
53 nM | 210 nM | 190 nM | > 100 nM | O=C1NN=C(c2ccc(-c3cc4ccccc4s3)c(C(F)(F)F)c2)CO1 [Example 148, 5-[4-(1-Benzothiophen-2-yl)-3-(trifluoromethyl)phenyl]-3,6-dihydro-2H-1,3,4-oxadiazin-2-one]
2 nM | 132 nM | 163 nM | 4 nM | O=C1NN=C(c2ccc(C3=CCOC3)c(C(F)(F)F)c2)CO1 [Example 149, 5-[4-(2,5-Dihydrofuran-3-yl)-3-(trifluoromethyl)phenyl]-3,6-dihydro-2H-1,3,4-oxadiazin-2-one]
2 nM | 250 nM | 240 nM | 5 nM | O=C1NN=C(c2ccc(C3=CCCC3)c(C(F)(F)F)c2)CO1 [Example 150, 5-[4-(Cyclopent-1-en-1-yl)-3-(trifluoromethyl)phenyl]-3,6-dihydro-2H-1,3,4-oxadiazin-2-one]
5 nM | 159 nM | 69 nM | 5 nM | CCn1cnc(-c2ccc(C3=NNC(=O)OC3)cc2C(F)(F)F)c1 [Example 151, 5-[4-(1-Ethyl-1H-imidazol-4-yl)-3-(trifluoromethyl)phenyl]-3,6-dihydro-2H-1,3,4-oxadiazin-2-one]
21 nM | 76 nM | 63 nM | 56 nM | Cc1cc(-c2ccc(C3=NNC(=O)OC3)cc2C(F)(F)F)sc1C#N [Example 152, 3-Methyl-5-[4-(2-oxo-3,6-dihydro-2H-1,3,4-oxadiazin-5-yl)-2-(trifluoromethyl)phenyl]thiophene-2-carbonitrile]
4 nM | 26 nM | 15 nM | 7 nM | CC(C)n1cc(-c2ccc(C3=NNC(=O)OC3)cc2C(F)(F)F)cn1 [Example 153, 5-{4-[1-(Propan-2-yl)-1H-pyrazol-4-yl]-3-(trifluoromethyl)phenyl}-3,6-dihydro-2H-1,3,4-oxadiazin-2-one]
9 nM | 110 nM | 92 nM | 17 nM | O=C1NN=C(c2ccc(-c3ccccc3F)c(C(F)(F)F)c2)CO1 [Example 155, 5-[2′-Fluoro-2-(trifluoromethyl)[1,1′-biphenyl]-4-yl]-3,6-dihydro-2H-1,3,4-oxadiazin-2-one]
55 nM | 650 nM | 440 nM | 68 nM | O=C1NN=C(c2ccc(-c3ccc(C(F)(F)F)s3)c(C(F)(F)F)c2)CO1 [Example 156, 5-{3-(Trifluoromethyl)-4-[5-(trifluoromethyl)thiophen-2-yl]phenyl}-3,6-dihydro-2H-1,3,4-oxadiazin-2-one]
44 nM | > 1000 nM | > 1000 nM | 71 nM | Cc1ccc(-c2ccc(C3=NNC(=O)OC3)cc2C(F)(F)F)nc1 [Example 157, 5-[4-(5-Methylpyridin-2-yl)-3-(trifluoromethyl)phenyl]-3,6-dihydro-2H-1,3,4-oxadiazin-2-one]
22 nM | 720 nM | 500 nM | 40 nM | O=C1NN=C(c2ccc(-c3ccc(F)cn3)c(C(F)(F)F)c2)CO1 [Example 158, 5-[4-(5-Fluoropyridin-2-yl)-3-(trifluoromethyl)phenyl]-3,6-dihydro-2H-1,3,4-oxadiazin-2-one]
11 nM | > 1000 nM | > 1000 nM | 22 nM | O=C1NN=C(c2ccc(-c3ccc(Cl)cn3)c(C(F)(F)F)c2)CO1 [Example 159, 5-[4-(5-Chloropyridin-2-yl)-3-(trifluoromethyl)phenyl]-3,6-dihydro-2H-1,3,4-oxadiazin-2-one]
27 nM | > 1000 nM | > 1000 nM | 47 nM | O=C1NN=C(c2ccc(-c3ccccn3)c(C(F)(F)F)c2)CO1 [Example 160, 5-[4-(Pyridin-2-yl)-3-(trifluoromethyl)phenyl]-3,6-dihydro-2H-1,3,4-oxadiazin-2-one]
8 nM | 51 nM | 35 nM | 14 nM | Cc1cc(C#N)ccc1-c1ccc(C2=NNC(=O)OC2)cc1F [Example 163, 2′-Fluoro-2-methyl-4′-(2-oxo-3,6-dihydro-2H-1,3,4-oxadiazin-5-yl)[1,1′-biphenyl]-4-carbonitrile]
6 nM | 200 nM | 300 nM | 8 nM | CC(C)=Cc1ccc(C2=NNC(=O)OC2)cc1OC(F)(F)F [Example 164, 5-[4-(2-Methylprop-1-en-1-yl)-3-(trifluoromethoxy)phenyl]-3,6-dihydro-2H-1,3,4-oxadiazin-2-one]
4 nM | 66 nM | 34 nM | 6 nM | Cc1ccc(-c2ccc(C3=NNC(=O)O[C@H]3C)cc2C(F)(F)F)cn1 [Example 167, (6S)-6-Methyl-5-[4-(6-methylpyridin-3-yl)-3-(trifluoromethyl)phenyl]-3,6-dihydro-2H-1,3,4-oxadiazin-2-one]
14 nM | 220 nM | 170 nM | 25 nM | Cc1ccc(-c2ccc(C3=NNC(=O)O[C@H]3C)cc2C(F)(F)F)c(F)c1 [Example 168, (6S)-5-[2′-Fluoro-4′-methyl-2-(trifluoromethyl)[1,1′-biphenyl]-4-yl]-6-methyl-3,6-dihydro-2H-1,3,4-oxadiazin-2-one]
20 nM | 240 nM | 180 nM | 32 nM | C[C@@H]1OC(=O)NN=C1c1ccc(-c2cc(F)c(F)cc2F)c(C(F)(F)F)c1 [Example 169, (6S)-6-Methyl-5-[2′,4′,5′-trifluoro-2-(trifluoromethyl)[1,1′-biphenyl]-4-yl]-3,6-dihydro-2H-1,3,4-oxadiazin-2-one]

Structure (SMILES) | IC50 [1] | IC50 [2] | IC50 [3] | IC50 [4]
CN1CC=C(c2ccc(C3=NNC(=O)OC3)cc2C(F)(F)F)CC1 [Example 133, 5-[4-(1-Methyl-1,2,3,6-tetrahydropyridin-4-yl)-3-(trifluoromethyl)phenyl]-3,6-dihydro-2H-1,3,4-oxadiazin-2-one] | 32 nM | > 1000 nM | > 1000 nM | 51 nM
